Experimental data from PMC5484485, “In vitro and in vivo effects of kisspeptin antagonists p234, p271, p354, and p356 on GPR54 activation” (PLoS ONE, 2017).
Square brackets hold non-standard residues; d marks the D form. Ends that are not written are not given here.

How the values were obtained:
plasma LH concentration = test: Plasma LH in anestrous Beagle bitches during antagonist infusion and after cKP10 bolus; format: in vivo, dog; details: n = 6
Source text: Thirteen adult anestrous Beagle bitches were used for this study. Six dogs with a median age of 89 months (range 43–122 months) were used as control group, receiving cKP10 without an antagonist. Eight dogs with a median age of 52 months (range 31–116 months) were used for the antagonist experiments. One dog was first used in the control group and 12 months later for the antagonist experiments. Of the eight dogs used for the antagonist experiments, four received p271, p354, and p356. In two of the eight dogs both p354 and p356 were tested, while in the remaining two dogs only p271 was tested, in order to test every antagonist in 6 dogs. The time between testing of different kisspeptin antagonists was at least 5 days (range 5–15 days) to ensure that there were no peptide residues. Kisspeptin antagonist p234 per se was not tested in vivo because p271 is in fact p234 with a penetratin tag to enhance passage across the blood-brain barrier, as has been described for use with peripheral administration.
Kisspeptin antagonists (50 μg/kg/h) were administered continuously for three hours via a catheter in the cephalic vein. Two hours after the start of the infusion, a single bolus of cKP10 (0.5 μg/kg) was administered intravenously. Blood samples were collected from the jugular vein by venipuncture at -40 min and 0 min before the antagonist infusion, and then every 30 min for two hours. After the administration of cKP10, blood samples were collected at 10, 20, 40, and 60 min (i.e., 130, 140, 160, and 180 min after the start of the antagonist infusion).
As a control, KP stimulation tests (without the administration of a kisspeptin antagonist) were performed in six dogs. Blood samples were collected from the jugular vein by venipuncture at -40 min and 0 min before, and then at 10, 20, 40, and 60 min after administration of cKP10 (0.5 μg/kg). Plasma LH concentrations were measured in all blood samples.
Plasma LH concentrations were measured with a heterologous radioimmunoassay validated for the dog, as described previously. The intra- and interassay CVs for values above 0.5 μg/l were 2.3 and 10.5%, respectively, and the limit of quantitation was 0.3 μg/l.
In both groups of dogs (experimental and control), the basal plasma LH concentration was calculated for each dog as the mean of the values at –40 and 0 min before cKP10 or antagonist administration. All LH values that exceeded the mean of all basal samples plus 3 SD were attributed to pulsatile secretion and were treated as outliers and excluded from statistical analysis. Log transformation of plasma LH concentrations was used because data were not normally distributed. A linear mixed model was used to analyze differences in plasma LH concentrations before and after KP10, with or without a kisspeptin antagonist (group effects: p271, p354, p356, and controls), with Bonferroni correction. P<0.05 was considered significant.

CHEM1-GPR54 cells = molecular target: T1, CHEM1-GPR54 cells (Homo sapiens, UniProt Q969F8); test: Preliminary calcium flux assay with adherent CHEM1-GPR54 cells (unpublished); format: cell-based; details: too few repeats for statistics
T1 construct: host or cells: rat hematopoietic CHEM1 cells expressing endogenous Galpha15

human GPR54 = human GPR54 (Homo sapiens, UniProt Q969F8); test: Flow cytometric calcium flux assay, KP10-induced response after 15 min pre-incubation with antagonist; format: cell-based; set-up: host or cells: rat hematopoietic CHEM1 cells expressing endogenous Galpha15; details: all concentrations 10^-13 to 10^-5 M; 10^-8 M KP10; 15 min pre-incubation; P = 1.00
Method: In vitro analyses of the effects of kisspeptin and kisspeptin antagonists, were performed using HT[…] cells (rat hematopoietic CHEM1 cells expressing endogenous Gα15 and, stably expressing the human GPR54 receptor (Millipore BV, the Netherlands), CHEM1-GPR54. Cells were counted and suspended in HBSS+++ at a concentration of 5*10^6 cells/ml. To load the cells with the fluorescent dye ester they were incubated in HBSS+++ adjusted to a concentration of 2 μM Fluo-3 AM (Molecular Probes, Life Technologies, the Netherlands) for 1h at 37°C under agitation in the dark. After incubation, the cells were washed by adding HBSS+++ to a volume of 10 ml followed by centrifugation (5 min, 150 x g) to remove excess of Fluo-3AM. […] Thereafter the tube was removed briefly and 25 μl peptide (see below) was added, after which aspiration and analysis continued. For statistical analyses fluorescent data recorded during the time interval 30-60 seconds after initiation of measurement were used. […] We then assessed whether these antagonists could compete with KP10 for its receptor. […] For this purpose 25 μl quantities of the antagonists were added to 200 μl of Fluo-3 AM labelled cells (10^6 cells/ml) and incubated for 15 min. […] Peptides p354 and p356 were tested three times with both human and canine KP10; while peptides p234 and p271 were tested three times with human KP10 and once with canine KP10. To analyze the effects of different concentrations of the KP antagonists on the calcium response due to KP10 addition, the differences in fluorescence before and after KP10 were calculated (the calcium response). The calcium response ratios were calculated as the calcium response of the CHEM1-GPR54 cells pre-incubated with different concentrations of KP antagonist and the control (the calcium response of the cells without KP antagonist). These calcium response ratios were log transformed and used for further analysis by univariate analysis of variance, with the Dunnett's test as post hoc test. The calcium response ratios were set as dependent variables and the different concentrations of the antagonists and the two types of KP10 were used as fixed factors. The residuals were normally distributed.

[1] = antagonist 50 μg/kg/h iv, cKP10 0.5 μg/kg iv

T1 sequence (Q969F8 whole entry): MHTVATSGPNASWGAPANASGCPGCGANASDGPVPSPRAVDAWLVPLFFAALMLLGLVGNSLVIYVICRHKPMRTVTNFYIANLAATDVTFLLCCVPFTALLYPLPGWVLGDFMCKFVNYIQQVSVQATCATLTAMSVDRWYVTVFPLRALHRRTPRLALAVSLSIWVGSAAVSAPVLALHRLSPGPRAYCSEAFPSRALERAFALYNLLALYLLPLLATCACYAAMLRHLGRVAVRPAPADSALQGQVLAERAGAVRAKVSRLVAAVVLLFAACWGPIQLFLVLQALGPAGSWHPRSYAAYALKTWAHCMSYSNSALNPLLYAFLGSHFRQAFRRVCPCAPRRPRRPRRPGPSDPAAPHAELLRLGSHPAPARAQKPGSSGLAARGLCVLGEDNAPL
Chain of human GPR54 (Q969F8 whole entry): as above

“RRMKWKKY[dA]NWNGFG[dW]RF-NH2 [p271, p234 with a penetratin tag]” was tested, and the “Median (and range) plasma LH, t = 30” value (plasma LH concentration; 30 min of antagonist infusion 50 μg/kg/h iv) was 3.9 (2.2–5.4) μg/L, the “Median (and range) plasma LH, t = 60” value (plasma LH concentration; 60 min of antagonist infusion 50 μg/kg/h iv) was 5.2 (2.5–10.0) μg/L and the “Median (and range) plasma LH, t = 90” value (plasma LH concentration; 90 min of antagonist infusion 50 μg/kg/h iv) was 4.5 (2.8–6.3) μg/L. The “Median (and range) plasma LH, t = 120” value (plasma LH concentration; 120 min of antagonist infusion 50 μg/kg/h iv, before cKP10) was 6.0 (3.2–7.5) μg/L, the “median maximum increment in plasma LH concentration after cKP10 during antagonist administration” value (plasma LH concentration; [1]) was 12.2 µg/L and the “range of maximum increment in plasma LH concentration after cKP10 during antagonist administration” value (plasma LH concentration; [1]) was 4.7 to 18.2 µg/L. For the same substance, the “Median (and range) plasma LH, t = 130 / t = 10*” value (plasma LH concentration; antagonist infusion 50 μg/kg/h iv, 10 min after cKP10 0.5 μg/kg iv) was 16.2 (9.3–24.1) μg/L, the “Median (and range) plasma LH, t = 140 / t = 20*” value (plasma LH concentration; antagonist infusion 50 μg/kg/h iv, 20 min after cKP10 0.5 μg/kg iv) was 10.0 (5.7–12.6) μg/L and the “Median (and range) plasma LH, t = 160 / t = 40*” value (plasma LH concentration; antagonist infusion 50 μg/kg/h iv, 40 min after cKP10 0.5 μg/kg iv) was 6.4 (4.8–8.8) μg/L. The “Median (and range) plasma LH, t = 180 / t = 60*” value (plasma LH concentration; antagonist infusion 50 μg/kg/h iv, 60 min after cKP10 0.5 μg/kg iv) was 4.8 (3.5–7.3) μg/L, the “Median (and range) plasma LH, Basal” value (plasma LH concentration; before antagonist infusion (mean of -40 and 0 min per dog)) was 4.0 (2.9–5.9) μg/L and the “effect on basal plasma LH concentration” value (plasma LH concentration; continuous iv 50 μg/kg/h, anestrous bitches) was “did not cause significant alterations”. For the same substance, the “inhibition of KP10-induced calcium response, adherent cells” value (CHEM1-GPR54 cells) was “could not be inhibited” and the “difference in calcium response ratio between controls and antagonist” value (human GPR54) was “not significant”.
